Patent US20040232089A1, “Biocidal compounds for treating water” (VANETTA S.p.A., priority 2003, published 2004)

What was measured:
[1] = system: cysts (resting stage) of Scrippsiella trochoidea; assay: Inhibition of dynoflagellates cysts hatching; assay type: cell-based; settings: after 6 days
Text: For this test, cysts (resting stage) of Scrippsiella trochoidea (Dinophyta) were used. Scrippsiella trochoidea (order Peridiniales, subfamily Calciodinelloideae) i.e. a non-toxic autotrophic orthoperidinioid dinoflagellate producing calcareous resting cysts which are abundant in coastal marine sediments. The maturation period for S. trochoidea cysts rang between 2 and 5 weeks.
S. trochoidea cysts are very convenient for experimental purposes because their sorting and culturing is comparatively easy, the cysts being relatively abundant in sediments.
Sediments were sampled in Mar Piccolo (Taranto). The utilized method allowed us to pick up the superficial sediment layer of a certain area entirely, where most of the cysts is present. The sample was immediately kept at dark at 4° C. Sediments collected about one year ago were utilized, in order to be sure that the hatching refractoriness period of cysts was finished. The sample (about 2 ml of sediment) was then dissolved in 0,45 μm filtered natural sea-water, sonified for 1 minute (Branson Sonifier) in order to brake sediment clots, resuspended in filtered sea-water and filtered on a Endecotts sieve, with a 20 μm steel mesh. […]

[2] = Photo-degradability under daylight and UV; assay type: physicochemical; settings: 10 ppm in drinking water (pH 6,5-7,5)
Method: Similarly, the same behaviour is confirmed when evaluating the photo-degradability under daylight and UV (the irradiation test is carried out on a solution of 10 ppm in drinking water (pH 6,5-7,5)).

[3] = system: Staphylococcu aureus ATCC 25923; assay: Microdilution broth MIC/MBC; assay type: cell-based, Staphylococcus aureus; settings: 24 h at 25° C., dark
Method: b) Serial dilution test: the antibiotic activity is determined quantitatively by using the known sensitivity of a test strain towards an antibiotic which is expressed numerically as the minimal inhibitory concentration (MIC) and the minimal bactericidal concentration (MBC).
Procedure: serial dilutions of the antibiotic to be tested are pipetted into the antibiotic broth, this is then inoculated with a defined quantity of the relevant test strain (FIG. 4).
The Minimum Inhibitory Concentration (MIC) was defined as the lowest concentration of antibiotic which prevented visual turbidity after incubation.
The Minimum Bactericidal Concentration (MBC) is defined as the lowest concentration of an antibiotic killing the majority of a bacterial inoculum (99.9%, equivalent to a thousand-fold reduction of the inoculum). Method: Following a broth dilution MIC test, from each tube in the dilution series a defined volume (20 μL) is spread onto plates without antibiotics. […] The plates were incubate overnight (longer for slow growing bacteria) and then counted the number of colonies growing from each of the test tubes. The number of colonies corresponding to a thousand-fold reduction (MBC) can be calculated if the colony count of the start inoculum is known. […]
Antimicrobial assays were performed in dark, and results were read after 24 h of incubation at 25° C. […]

## CC1(S(=O)(=O)O)CC(=O)c2ccccc2C1=O.NC(=O)c1cccnc1 (centres unmarked) [MNB, menadione nicotinamide bisulphite]
[1]
  LC50: 2,65 mg/L
[2]
  Light exp. Tot Degr.: 48 h
  Light exp. ½ life: 10 h
[3]
  MBC: 16 µg/mL
  MIC: 8 µg/mL
